Assay results published in the NIST ThermoML archive (doi:10.1021/je1007235).
Numbers after ± are expanded uncertainties. One block for each molecule: values may come before it.

Tests used:
[1] = wn = mass fraction of the nth substance listed; details: 298.15 K, 101.3 kPa, Liquid
[2] = 101.33 kPa, Liquid

SMILES: OCCO [1,2-ethanediol] + CC(=O)[O-].CCCCn1cc[n+](C)c1
- viscosity ([1]; w1 = 1): 16.1 ± 2 mPa·s

SMILES: CC(=O)[O-].CCCCn1cc[n+](C)c1 [1-butyl-3-methylimidazolium acetate]
- viscosity ([2]; 298.15 K): 383 ± 85 mPa·s
- viscosity ([2]; 353.15 K): 26 ± 2 mPa·s
- viscosity ([2]; 373.1 K): 15 ± 2 mPa·s
- viscosity ([2]; 393.15 K): 9 ± 2 mPa·s

SMILES: CC(=O)[O-].CCCCn1cc[n+](C)c1 [1-butyl-3-methylimidazolium acetate] + CC#N
- viscosity ([1]; w2 = 0.089): 148 ± 19 mPa·s
- viscosity ([1]; w2 = 0.213): 27 ± 2 mPa·s
- viscosity ([1]; w2 = 0.389): 5 ± 2 mPa·s
- viscosity ([1]; w2 = 0.593): 2 mPa·s

SMILES: CC(=O)[O-].CCCCn1cc[n+](C)c1 [1-butyl-3-methylimidazolium acetate] + CN(C)C=O
- viscosity ([1]; w2 = 0.062): 231 ± 40 mPa·s
- viscosity ([1]; w2 = 0.191): 54 ± 3 mPa·s
- viscosity ([1]; w2 = 0.389): 11 ± 2 mPa·s
- viscosity ([1]; w2 = 0.606): 4 mPa·s

SMILES: CC(=O)[O-].CCCCn1cc[n+](C)c1 [1-butyl-3-methylimidazolium acetate] + O
- viscosity ([1]; w2 = 0.029): 383 ± 88 mPa·s
- viscosity ([1]; w2 = 0.031): 341 ± 74 mPa·s
- viscosity ([1]; w2 = 0.048): 236 ± 41 mPa·s
- viscosity ([1]; w2 = 0.512): 18 ± 2 mPa·s
- viscosity ([1]; w2 = 0.731): 5 ± 2 mPa·s

SMILES: CC(=O)[O-].CCCCn1cc[n+](C)c1 [1-butyl-3-methylimidazolium acetate] + OCCO
- viscosity ([1]; w2 = 0.081): 291 ± 58 mPa·s
- viscosity ([1]; w2 = 0.248): 102 ± 9 mPa·s
- viscosity ([1]; w2 = 0.464): 39 ± 2 mPa·s
- viscosity ([1]; w2 = 0.678): 26 ± 2 mPa·s

SMILES: CCCCn1cc[n+](C)c1.[Cl-] [1-butyl-3-methylimidazolium chloride]
- viscosity ([2]; 353.15 K): 142 ± 17 mPa·s
- viscosity ([2]; 373.1 K): 68 ± 3 mPa·s
- viscosity ([2]; 393.15 K): 31 ± 2 mPa·s

SMILES: CCCCn1cc[n+](C)c1.N#CN=C=[N-] [1-butyl-3-methylimidazolium dicyanamide]
- viscosity ([2]; 298.15 K): 31 ± 2 mPa·s
- viscosity ([2]; 353.15 K): 11 ± 2 mPa·s
- viscosity ([2]; 373.1 K): 6 ± 2 mPa·s
- viscosity ([2]; 393.15 K): 4 mPa·s

SMILES: CC(=O)[O-].CCn1cc[n+](C)c1 [1-ethyl-3-methylimidazolium acetate]
- viscosity ([2]; 298.15 K): 162 ± 21 mPa·s
- viscosity ([2]; 353.15 K): 17 ± 2 mPa·s
- viscosity ([2]; 373.1 K): 9 ± 2 mPa·s
- viscosity ([2]; 393.15 K): 5 ± 2 mPa·s

SMILES: CC(=O)[O-].CCn1cc[n+](C)c1 [1-ethyl-3-methylimidazolium acetate] + O
- viscosity ([1]; w2 = 0.023): 122 ± 13 mPa·s
- viscosity ([1]; w2 = 0.045): 81 ± 5 mPa·s
- viscosity ([1]; w2 = 0.084): 57 ± 3 mPa·s
- viscosity ([1]; w2 = 0.192): 32 ± 2 mPa·s
- viscosity ([1]; w2 = 0.374): 12 ± 2 mPa·s
- viscosity ([1]; w2 = 0.556): 4 mPa·s

SMILES: CCCCCCn1cc[n+](C)c1.[Cl-] [1-hexyl-3-methylimidazolium chloride]
- viscosity ([2]; 353.15 K): 293 ± 57 mPa·s
- viscosity ([2]; 373.1 K): 87 ± 6 mPa·s
- viscosity ([2]; 393.15 K): 43 ± 3 mPa·s

Other lines, results leading:

- viscosity ([2]; 353.15 K): 65 ± 3 mPa·s
- viscosity ([2]; 373.1 K): 27 ± 2 mPa·s
- viscosity ([2]; 393.15 K): 13 ± 2 mPa·s
SMILES: CCn1cc[n+](C)c1.[Cl-] [1-ethyl-3-methylimidazolium chloride]

- viscosity ([2]; 353.15 K): 375 ± 82 mPa·s
- viscosity ([2]; 373.1 K): 161 ± 21 mPa·s
- viscosity ([2]; 393.15 K): 81 ± 5 mPa·s
SMILES: CCCCCCCC[n+]1ccn(C)c1.[Cl-] [1-methyl-3-octylimidazolium chloride]

- viscosity ([1]; w1 = 1): 0.34 mPa·s
SMILES: CC#N [acetonitrile] + CC(=O)[O-].CCCCn1cc[n+](C)c1

- viscosity ([1]; w1 = 1): 0.92 mPa·s
SMILES: CN(C)C=O [dimethylformamide] + CC(=O)[O-].CCCCn1cc[n+](C)c1

- viscosity ([1]; w1 = 1): 0.89 mPa·s
SMILES: O [water] + CC(=O)[O-].CCCCn1cc[n+](C)c1

- viscosity ([1]; w1 = 1): 0.89 mPa·s
SMILES: O [water] + CC(=O)[O-].CCn1cc[n+](C)c1
